Measured values taken from patent publication US20060034882A1, “Yarns and fabrics having long-lasting mosquito repellent or antibacterial effect and their preparation” (FORMOSA TAFFETA CO., LTD., priority 2004, published 2006).

Legend:
rats = conditions: cited from earlier work
[1] = amount of compound contained in the fabric before and after laundering (Soxhlet extraction, HPLC); assay type: physicochemical; conditions: treated fabric of the Example; for Amounts, Laundering Number L25 (amount of the compound in the fabric after 25 launderings): after 25 launderings (JIS L02173-103), methylene dichloride extraction 4 hours; for Amounts, Laundering Number L0 (amount of the compound in the fabric before laundering): methylene dichloride extraction
Procedure: The fabric is subjected to a test for determining the amount of Permethrin and octylisothiazolone contained therein.
The compounds contained in the fabric are extracted, and determined by High Performance Liquid Chromatography (HPLC).
The fabric is laundered 25 times (JIS L02173-103). Then, the fabric is extracted for 4 hours with methylene dichloride in a Soxhlet extractor. The extract thus obtained is applied into HPLC for determining the amount of Permethrin or octylisothiazolone.
The amount of the compound contained in the fabric is determined by extraction and HPLC. L0 represents the amount of the compound before laundering. L25 represents the amount of the compound after 25 launderings.

rabbits = conditions: cited from earlier work

SMILES | LD50 for acute oral toxicity in rats (rats) | Amounts, Laundering Number L25 (amount of the compound in the fabric after 25 launderings) [1] | Amounts, Laundering Number L25 (amount of the compound in the fabric after 25 launderings) ([1]; listed as octylisothiazolone) | Amounts, Laundering Number L0 (amount of the compound in the fabric before laundering) [1] | LD50 for acute dermal toxicity in rabbits (rabbits)
CCCCCCCCn1sccc1=O [Octylisothiazolone, octylisothiazolone] | up to 270 mg/kg | 10 ppm | greater than 8 ppm | 80 ppm | up to 311 mg/kg
CC1(C)C(C=C(Cl)Cl)C1C(=O)OCc1cccc(Oc2ccccc2)c1 (centres unmarked) [Permethrin] | up to 470 mg/kg | – | – | 536 ppm | greater than 2500 mg/kg
